This is an account of results in US9732078B2, “Therapeutic use of imidazopyridine derivatives” (SANOFI, priority 2012, dated 2017).

Each structure is given as a SMILES string.

Holding throughout (assay type): cell-based
Data set [1] relates to TCC97-7 bladder cancer tumour cells carrying the Ser249Cys mutation of FGF receptor 3. The data set is described as follows: Cytotoxic effect: percentage of permeabilized (very fluorescent, Hoechst 33342) TCC97-7 cells. To be noted: 3 days. As for the experimental part:
In parallel to their antiproliferative capacity, the potential cytotoxic effect of the FGF-R antagonists is measured by means of quantifying the number of cells of which the membranes are permeabilized. The appearance of pores in the plasma membrane of the cells corresponds to a state of cell death which enables the Hoechst 33342 to penetrate more easily into the cell. This is reflected by a very strong increase in the amount of fluorescence detected in the nuclei. The percentage of cells in a state of cell death is calculated by the ratio between the number of very fluorescent nuclei to the total number of nuclei, multiplied by 100. The observations are carried out in the same way as the quantification of the nuclei for the cell proliferation.

Data set [2] relates to TCC97-7 bladder cancer cells carrying the Ser249Cys mutation of FGF receptor 3. Briefly: Reduction of intracellular ATP content of TCC97-7 cells (Cell Titer-Glo, 3 days, serum-supplemented medium). To be noted: TCC97-7 cells in presence of serum. Here is the method: Evaluation of the Capacity of the FGF-R Antagonists to Reduce the ATP Content of TCC97-7 Bladder Cancer Cells Carrying the Ser249Cys Mutation of FGF Receptor 3, Cultured in a Serum-Supplemented Medium
To do this, 3000 cells are seeded in 50 μl of complete medium (Ham-F/12, 1% FCS, […], non-essential amino acids, sodium pyruvate, 1% insulin/transferrin/selenium, hydrocortisone). 16 hours later, 50 μl of the various compounds are added at 0.2, 2, 20 and 60 μM after dilution in complete culture medium in order to obtain final concentrations of 0.1, 1, 10 and 30 μM. After 3 days, the ATP content of the cells is measured using the Cell Titer-Glo® Luminescent Cell Viability Assay kit (Promega, France) according to the supplier's recommendations. The percentage inhibition of the amount of intracellular ATP is calculated by considering the ATP content of the cells cultured in the absence of antagonist to be 0% inhibition. 100% inhibition would correspond to a well in which the ATP content is zero.
A general note: ATP-based viability assays read luminescence as a measure of living cells.

Data set [3] concerns TCC97-7 bladder cancer tumour cells carrying the Ser249Cys mutation of FGF receptor 3. Briefly: Inhibition of serum-induced proliferation of TCC97-7 bladder cancer cells (count of Hoechst 33342-labelled nuclei after 3 days). To be noted: TCC97-7 cells in presence of serum. As for the experimental part: To do this, 2000 cells are seeded in the morning in 50 μl of complete medium (Ham-F/12, 1% FCS, 2 mM glutamine, non-essential amino acids, sodium pyruvate, 1% insulin/transferrin/selenium, hydrocortisone). In the evening, 50 μl of the various compounds are added at 0.02, 0.2, 2 or 20 μM after dilution in complete culture medium in order to obtain final concentrations of 0.01, 0.1, 1 and 10 μM. After 3 days, the cell proliferation is evaluated by measuring the number of nuclei at the bottom of each well corresponding to a number of cells. The nuclei are detected by means of labelling with Hoechst 33342 (Invitrogen, ref H3570). 100 μl of Hoechst 33342 diluted to 1/5000th in PBS are added to each well for 30 min at ambient temperature on non-fixed cells. The nuclei are detected by fluorescence at 350 nm at ×2 magnification with an Operetta (PerkinElmer) using the Acapella (PerkinElmer) imaging software and analysed using the Columbus (PerkinElmer) image analysis software. The percentage inhibition of the cell proliferation is calculated by considering the number of nuclei present in the wells in which the TCC97-7 cells are cultured in the absence of FGF-R antagonists to be 0% inhibition. 100% inhibition would correspond to a well no longer containing cells.

For `CCCn1c(=O)n(Cc2ccc(C)s2)c(=O)c2cc(C(=O)c3nc(-c4cccc(C(=O)[O-])c4)c4ccccn34)ccc21.[Na+]` [compound 224], the “Cytotoxicity (% of permeable cells)” value is given as 3% in data set [1] (0.01 μM), 3% in data set [1] (0.1 μM), 4% in data set [1] (1 μM) and 9% in data set [1] (10 μM). The “Inhibition of the amount of intracellular ATP (%)” value (shortened to “Inhibition of the amount … (%)”) in data set [2] (0.1 μM) is −1%; in data set [2] (1 μM), 20%; in data set [2] (10 μM), 83%. The “Inhibition of proliferation (%)” value in data set [3] (0.01 μM) is listed as 3%; in data set [3] (0.1 μM), 0%; in data set [3] (1 μM) it was 27%; in data set [3] (10 μM), 82%.

Turning to `CCOC(=O)c1cccc(-c2nc(C(=O)c3ccc4c(c3)c(=O)n(Cc3ccc(F)cc3)c(=O)n4C)n3ccccc23)c1` [compound 79], the “Cytotoxicity (% of permeable cells)” value is reported as 1% in data set [1] (0.01 μM), 1% in data set [1] (0.1 μM), 2% in data set [1] (1 μM) and 10% in data set [1] (10 μM). Also, the results for the “Inhibition of the amount … (%)” value in data set [2] (0.1 μM), in data set [2] (1 μM) and in data set [2] (10 μM) were −6%, 7% and 72%, respectively. Further, the “Inhibition of proliferation (%)” value in data set [3] (0.01 μM) stood at 5%; in data set [3] (0.1 μM) it was 0%; in data set [3] (1 μM), 17%; in data set [3] (10 μM), 71%.

Consider `Cn1c(=O)n(CCc2ccc(F)cc2)c(=O)c2cc(C(=O)c3nc(-c4cccc(C(=O)[O-])c4)c4ccccn34)ccc21.[Na+]` [compound 148], for which the “Cytotoxicity (% of permeable cells)” value is 4% in data set [1] (0.01 μM), 4% in data set [1] (0.1 μM), 4% in data set [1] (1 μM) and 11% in data set [1] (10 μM). In addition, the “Inhibition of the amount … (%)” value in data set [2] (0.1 μM) was 1%; in data set [2] (1 μM), 8%; in data set [2] (10 μM), 66%. The “Inhibition of proliferation (%)” value in data set [3] (0.01 μM) was 12%; in data set [3] (0.1 μM), 6%; in data set [3] (1 μM) it was 15%; in data set [3] (10 μM), 81%.

On to `Cn1c(=O)n(Cc2ccc(F)cc2)c(=O)c2cc(C(=O)c3ncc4ccccn34)ccc21` [compound 226], for which the “Cytotoxicity (% of permeable cells)” value was determined as 5% in data set [1] (0.01 μM), 6% in data set [1] (0.1 μM), 10% in data set [1] (1 μM) and 25% in data set [1] (10 μM). The “Inhibition of the amount … (%)” value is listed as −1% in data set [2] (0.1 μM), 5% in data set [2] (1 μM) and 41% in data set [2] (10 μM). In addition, the “Inhibition of proliferation (%)” value in data set [3] (0.01 μM) is given as 3%; in data set [3] (0.1 μM), 8%; in data set [3] (1 μM), 28%; in data set [3] (10 μM) it was 73%.

Regarding `Cc1ccc(Cn2c(=O)c3cc(C(=O)c4nc(-c5cccnc5)c5ccccn45)ccc3n(C)c2=O)s1` [compound 220], the “Cytotoxicity (% of permeable cells)” value in data set [1] (0.01 μM) is 6%; in data set [1] (0.1 μM) it was 5%; in data set [1] (1 μM) it was 5%; in data set [1] (10 μM), 11%. For the same compound, the “Inhibition of the amount … (%)” value in data set [2] (0.1 μM) was found to be 6%; in data set [2] (1 μM) it was 10%; in data set [2] (10 μM), 16%; in data set [2] (30 μM), 60%. Also, the “Inhibition of proliferation (%)” value in data set [3] (0.01 μM) amounted to 4%; in data set [3] (0.1 μM), 3%; in data set [3] (1 μM), 13%; in data set [3] (10 μM), 49%.

As to `Cn1c(=O)n(Cc2cccc(F)c2)c(=O)c2cc(C(=O)c3nc(-c4cccc(C(N)=O)c4)c4ccccn34)ccc21` [compound 108], the “Cytotoxicity (% of permeable cells)” value in data set [1] (0.01 μM) worked out at 4%; in data set [1] (0.1 μM) it was 5%; in data set [1] (1 μM) it was 4%; in data set [1] (10 μM), 4%. Besides, the “Inhibition of proliferation (%)” value in data set [3] (0.01 μM) is −4%; in data set [3] (0.1 μM), −5%; in data set [3] (1 μM) it was 6%; in data set [3] (10 μM), 22%.

As to `COCn1c(=O)n(Cc2ccc(F)cc2)c(=O)c2cc(C(=O)c3nc(-c4cccc(C(=O)[O-])c4)c4ccccn34)ccc21.[Na+]` [compound 71], the “Cytotoxicity (% of permeable cells)” value is 4% in data set [1] (0.01 μM), 4% in data set [1] (0.1 μM), 5% in data set [1] (1 μM) and 1% in data set [1] (10 μM). Also, the “Inhibition of the amount … (%)” value is listed as −4% in data set [2] (0.1 μM), −1% in data set [2] (1 μM) and 94% in data set [2] (10 μM). The “Inhibition of proliferation (%)” value in data set [3] (0.01 μM) is listed as 0%; in data set [3] (0.1 μM), 1%; in data set [3] (1 μM), 14%; in data set [3] (10 μM) it was 85%.

Turning to `Cc1nnc(-c2cccc(-c3nc(C(=O)c4ccc5c(c4)c(=O)n(Cc4ccc(F)cc4)c(=O)n5C)n4ccccc34)c2)o1` [compound 140], the “Cytotoxicity (% of permeable cells)” value came to 1% in data set [1] (0.01 μM), 1% in data set [1] (0.1 μM), 1% in data set [1] (1 μM) and 2% in data set [1] (10 μM). The “Inhibition of proliferation (%)” value is given as 0% in data set [3] (0.01 μM), −1% in data set [3] (0.1 μM), −7% in data set [3] (1 μM) and 26% in data set [3] (10 μM).

Consider `CCCn1c(=O)n(Cc2ccc(F)cc2)c(=O)c2cc(C(=O)c3nc(-c4cnc(N(C)C)nc4)c4ccccn34)ccc21` [compound 232], for which the “Cytotoxicity (% of permeable cells)” value in data set [1] (0.01 μM) came to 3%; in data set [1] (0.1 μM), 3%; in data set [1] (1 μM), 4%; in data set [1] (10 μM), 23%. The “Inhibition of the amount … (%)” value in data set [2] (0.1 μM) came to 7%; in data set [2] (1 μM), 8%; in data set [2] (10 μM), 45%. Moreover, the “Inhibition of proliferation (%)” value is listed as −6% in data set [3] (0.01 μM), 1% in data set [3] (0.1 μM), 20% in data set [3] (1 μM) and 79% in data set [3] (10 μM).

As to `CCCn1c(=O)n(CCCC(C)C)c(=O)c2cc(C(=O)c3nc(-c4cccc(C(=O)[O-])c4)c4ccccn34)ccc21.[Na+]` [compound 207], the “Cytotoxicity (% of permeable cells)” value in data set [1] (0.01 μM) came out at 5%; in data set [1] (0.1 μM) it was 4%; in data set [1] (1 μM) it was 5%; in data set [1] (10 μM), 23%. The “Inhibition of the amount … (%)” value in data set [2] (0.1 μM) was found to be 10%; in data set [2] (1 μM), 23%; in data set [2] (10 μM) it was 62%. In addition, the “Inhibition of proliferation (%)” value in data set [3] (0.01 μM) is 2%; in data set [3] (0.1 μM), 7%; in data set [3] (1 μM), 45%; in data set [3] (10 μM), 82%.
